# ChEMBL document CHEMBL5036382 (ACS Med Chem Lett, 2022)
# The source made the active and inactive calls. The calls are words filed in the database; no cut-off is given here.
# Legend:
# [1] = molecular target: T1, DNA-directed RNA polymerase I subunit RPA1 (Homo sapiens, UniProt O95602); experiment: Inhibition of RNA polymerase 1 in human A-375 assessed as RPA194 degradation measured after 3 hrs by Hoechst 33342 staining based assay
# [2] = molecular target: T2, Cytochrome P450 1A2 (Homo sapiens, UniProt P05177); experiment: Inhibition of recombinant human hepatic CYP1A2 expressed in baculovirus insect cell expression system in presence of CEC substrate measured by fluorescence plate reader assay
# T2 sequence (P05177 whole entry): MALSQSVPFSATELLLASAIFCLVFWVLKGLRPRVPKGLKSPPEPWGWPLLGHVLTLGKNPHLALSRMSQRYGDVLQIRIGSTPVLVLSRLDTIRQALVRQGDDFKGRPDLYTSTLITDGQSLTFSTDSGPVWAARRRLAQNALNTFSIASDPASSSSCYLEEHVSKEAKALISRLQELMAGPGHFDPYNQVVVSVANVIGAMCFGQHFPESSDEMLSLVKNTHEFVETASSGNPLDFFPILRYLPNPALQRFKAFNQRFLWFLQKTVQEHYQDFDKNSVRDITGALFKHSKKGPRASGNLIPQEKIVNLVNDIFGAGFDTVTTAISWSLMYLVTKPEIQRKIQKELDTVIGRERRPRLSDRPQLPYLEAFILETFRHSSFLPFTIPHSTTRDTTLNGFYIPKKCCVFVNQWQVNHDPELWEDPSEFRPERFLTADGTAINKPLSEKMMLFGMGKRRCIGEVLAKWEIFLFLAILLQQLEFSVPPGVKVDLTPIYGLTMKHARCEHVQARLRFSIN
# [3] = molecular target: Voltage-gated inwardly rectifying potassium channel KCNH2 (Homo sapiens, UniProt Q12809); experiment: Inhibition on hERG expressed in HEK293 cells by Qpatch method
# [4] = Volume of distribution at steady state in CD1 mouse at 1 mg/kg, iv; type: ADME, organism-based; conditions: in vivo, read-out: Vdss
# [5] = Clearance in CD1 mouse at 1 mg/kg, iv; type: ADME, organism-based; conditions: in vivo
# [6] = Half life in CD1 mouse at 1 mg/kg, iv; type: ADME, organism-based; conditions: in vivo
# [7] = AUC (0 to infinity) in CD1 mouse at 30 mg/kg, po; type: ADME, organism-based; parameters: route oral, time infinity, dose 30 mg/kg; conditions: in vivo
# [8] = AUC (0 to infinity) in CD1 mouse at 1 mg/kg, iv; type: ADME, organism-based; parameters: time infinity, route intravenous, dose 1 mg/kg; conditions: in vivo
# [9] = Cmax in CD1 mouse at 30 mg/kg, po; type: ADME, organism-based; parameters: route oral, dose 30 mg/kg; conditions: in vivo
# [10] = tested on: A-375; experiment: Cytotoxicity against human A-375 cells assessed as reduction in cell viability incubated for 72 hrs by cell titer glo luminescent assay; conditions: A-375, 72 h
# [11] = Oral bioavailability in CD1 mouse at 30 mg/kg; type: ADME, organism-based; conditions: in vivo
# [12] = Metabolic stability in mouse liver microsomes at 1 uM assessed as intrinsic clearance measured after 45 mins by LC-MS/MS analysis; type: ADME, Microsome; conditions: read-out: CLH
# [13] = molecular target: T1, DNA-directed RNA polymerase I subunit RPA1; experiment: Inhibition of RPA1 in human A-375 cells assessed as downregulation of RPA1 gene at 1 uM incubated for 6 hrs measured by qPCR analysis; type: cell-based
# [14] = tested on: A-375; experiment: Inhibition of RPA2 in human A-375 cells assessed as downregulation of RPA2 gene at 1 uM incubated for 6 hrs measured by qPCR analysis; type: cell-based
# [15] = tested on: A-375; experiment: Inhibition of RPA3 in human A-375 cells assessed as downregulation of RPA3 gene at 1 uM incubated for 6 hrs measured by qPCR analysis; type: cell-based
# [16] = Cmax in CD1 mouse at 30 mg/kg, ip; conditions: in vivo
# [17] = Half life in CD1 mouse at 30 mg/kg, ip; conditions: in vivo
# [18] = AUC (0 to infinity) in CD1 mouse at 30 mg/kg, ip; conditions: in vivo
# T1 sequence (O95602 whole entry): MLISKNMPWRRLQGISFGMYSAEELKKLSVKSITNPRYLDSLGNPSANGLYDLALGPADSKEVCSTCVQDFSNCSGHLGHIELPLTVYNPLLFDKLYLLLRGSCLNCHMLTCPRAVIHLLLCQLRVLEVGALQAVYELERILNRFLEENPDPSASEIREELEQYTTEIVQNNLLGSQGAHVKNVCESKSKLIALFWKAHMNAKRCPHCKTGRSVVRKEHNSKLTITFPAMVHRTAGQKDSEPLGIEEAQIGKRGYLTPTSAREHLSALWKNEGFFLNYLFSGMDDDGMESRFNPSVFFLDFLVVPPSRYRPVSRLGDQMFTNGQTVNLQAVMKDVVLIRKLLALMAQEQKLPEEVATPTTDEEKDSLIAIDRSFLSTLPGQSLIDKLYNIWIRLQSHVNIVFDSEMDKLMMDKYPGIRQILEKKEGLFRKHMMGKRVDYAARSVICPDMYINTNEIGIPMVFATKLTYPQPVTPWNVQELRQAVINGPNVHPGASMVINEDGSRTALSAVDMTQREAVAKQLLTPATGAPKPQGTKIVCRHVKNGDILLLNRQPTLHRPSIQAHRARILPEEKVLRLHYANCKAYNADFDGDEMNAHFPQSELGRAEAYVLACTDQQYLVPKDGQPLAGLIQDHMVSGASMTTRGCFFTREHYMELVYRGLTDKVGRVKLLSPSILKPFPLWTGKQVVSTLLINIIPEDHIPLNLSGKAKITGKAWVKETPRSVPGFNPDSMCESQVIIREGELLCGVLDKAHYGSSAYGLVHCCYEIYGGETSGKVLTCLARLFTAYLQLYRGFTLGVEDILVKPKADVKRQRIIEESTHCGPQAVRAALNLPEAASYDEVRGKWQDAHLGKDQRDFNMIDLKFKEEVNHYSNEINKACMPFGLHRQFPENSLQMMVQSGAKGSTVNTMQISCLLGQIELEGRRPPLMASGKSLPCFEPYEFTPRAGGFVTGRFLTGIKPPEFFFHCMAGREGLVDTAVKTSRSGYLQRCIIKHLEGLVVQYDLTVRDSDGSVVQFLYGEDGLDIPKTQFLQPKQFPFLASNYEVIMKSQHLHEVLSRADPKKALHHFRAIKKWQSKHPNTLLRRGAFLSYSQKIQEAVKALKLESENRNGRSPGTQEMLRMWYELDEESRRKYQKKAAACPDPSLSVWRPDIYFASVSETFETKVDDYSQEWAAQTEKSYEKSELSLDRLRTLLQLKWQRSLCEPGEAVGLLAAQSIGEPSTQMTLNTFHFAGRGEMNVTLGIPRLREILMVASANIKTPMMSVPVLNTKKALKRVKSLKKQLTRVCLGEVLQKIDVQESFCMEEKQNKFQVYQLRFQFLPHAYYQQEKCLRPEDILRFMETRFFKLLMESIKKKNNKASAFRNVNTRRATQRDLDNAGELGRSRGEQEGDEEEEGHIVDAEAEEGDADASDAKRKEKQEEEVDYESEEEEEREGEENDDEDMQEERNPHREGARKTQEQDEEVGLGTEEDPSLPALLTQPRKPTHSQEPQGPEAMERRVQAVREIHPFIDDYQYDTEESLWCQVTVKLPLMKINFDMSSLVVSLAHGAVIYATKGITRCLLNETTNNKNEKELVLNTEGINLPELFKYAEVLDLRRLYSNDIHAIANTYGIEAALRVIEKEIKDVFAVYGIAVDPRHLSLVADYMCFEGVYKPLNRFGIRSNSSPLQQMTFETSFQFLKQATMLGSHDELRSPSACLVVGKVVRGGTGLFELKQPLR
# Voltage-gated inwardly rectifying potassium channel KCNH2, sequence (Q12809 whole entry): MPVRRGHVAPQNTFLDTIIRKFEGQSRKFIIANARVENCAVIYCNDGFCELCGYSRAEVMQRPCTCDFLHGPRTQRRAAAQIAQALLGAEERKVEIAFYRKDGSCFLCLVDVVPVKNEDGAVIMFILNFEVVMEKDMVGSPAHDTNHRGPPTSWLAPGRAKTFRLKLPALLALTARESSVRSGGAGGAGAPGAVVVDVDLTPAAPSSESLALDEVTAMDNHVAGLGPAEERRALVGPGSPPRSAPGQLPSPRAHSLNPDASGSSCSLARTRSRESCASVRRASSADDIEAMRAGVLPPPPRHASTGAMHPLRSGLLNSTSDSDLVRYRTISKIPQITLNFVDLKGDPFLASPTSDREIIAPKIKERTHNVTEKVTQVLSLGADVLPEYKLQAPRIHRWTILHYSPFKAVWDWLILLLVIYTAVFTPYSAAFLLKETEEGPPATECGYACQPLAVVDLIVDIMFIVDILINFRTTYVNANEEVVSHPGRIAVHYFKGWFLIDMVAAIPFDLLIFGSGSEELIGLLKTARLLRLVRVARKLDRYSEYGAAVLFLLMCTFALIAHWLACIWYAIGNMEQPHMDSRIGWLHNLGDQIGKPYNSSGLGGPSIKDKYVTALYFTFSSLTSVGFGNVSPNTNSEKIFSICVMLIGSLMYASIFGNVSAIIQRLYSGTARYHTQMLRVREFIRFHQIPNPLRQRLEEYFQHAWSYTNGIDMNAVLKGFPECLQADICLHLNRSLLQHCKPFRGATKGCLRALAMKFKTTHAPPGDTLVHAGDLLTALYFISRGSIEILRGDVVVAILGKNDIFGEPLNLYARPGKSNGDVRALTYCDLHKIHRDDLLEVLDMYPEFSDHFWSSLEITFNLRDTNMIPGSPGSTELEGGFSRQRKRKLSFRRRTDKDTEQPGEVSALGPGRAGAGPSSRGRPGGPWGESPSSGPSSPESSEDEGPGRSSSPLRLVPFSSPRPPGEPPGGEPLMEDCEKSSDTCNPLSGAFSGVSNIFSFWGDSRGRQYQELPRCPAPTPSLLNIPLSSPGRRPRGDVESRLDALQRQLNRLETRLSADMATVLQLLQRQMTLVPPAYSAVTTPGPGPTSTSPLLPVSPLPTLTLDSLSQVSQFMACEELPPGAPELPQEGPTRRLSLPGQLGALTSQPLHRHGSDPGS
IC50 [1],Structure (SMILES),other results
> 10 µM,CN(C)CCCNC(=O)c1cccn2c(=O)c3ccc4ccccc4c3nc12,–
> 10 µM,NCCNC(=O)c1cccn2c(=O)c3ccc4ccccc4c3nc12,IC50 [2]: > 10 µM; IC50 [3]: > 10 µM
–,CN(C)CCNC(=O)c1cccn2c(=O)c3cc4ccccc4cc3nc12,inhibition [14]: inactive; inhibition [15]: inactive
10 µM,CC(C)N1CCCCC1CNC(=O)c1cccn2c(=O)c3cc4ccccc4cc3nc12 (stereo not drawn),–
0.92 µM,CC(NC(=O)c1cccn2c(=O)c3cc4ccccc4cc3nc12)C1CCCCN1 (stereo not drawn),–
0.16 µM,CN(C)CCNC(=O)c1cccn2c(=O)c3ccc4ccccc4c3nc12,–
1.16 µM,Cc1cc2nc3c(C(=O)NCCN4CCCC4)cccn3c(=O)c2cc1C,–
0.42 µM,O=C(NCCN1CCCC1)c1cccn2c(=O)c3cc4c(cc3nc12)OC(F)(F)O4,–
0.6 µM,O=C(NCCN1CCC(O)(O)CC1)c1cccn2c(=O)c3cc4ccccc4cc3nc12,–
5.75 µM,O=C(NCCN1CCC(F)C1)c1cccn2c(=O)c3cc4ccccc4cc3nc12 (stereo not drawn),–
> 10 µM,O=C(NCCCN1CCCC1)c1cccn2c(=O)c3ccc4ccccc4c3nc12,–
1.39 µM,O=C(NCCN1CCCC1)c1cccn2c(=O)c3cc4c(cc3nc12)CCCC4,–
0.78 µM,O=C(NCCN1CCC(F)CC1)c1cccn2c(=O)c3cc4ccccc4cc3nc12,–
> 10 µM,O=C(NCCN1CC[C@H](F)C1)c1cccn2c(=O)c3ccc4ccccc4c3nc12,IC50 [2]: 4.5 µM; IC50 [3]: > 10 µM
> 10 µM,O=C(NC1CNC1)c1cccn2c(=O)c3ccc4ccccc4c3nc12,IC50 [2]: 0.2 µM; IC50 [3]: 3.97 µM
1.04 µM,O=C(NCCN1CCCC1)c1cccn2c(=O)c3cc4c(cc3nc12)OCCO4,–
0.47 µM,CNCCNC(=O)c1cccn2c(=O)c3ccc4ccccc4c3nc12,IC50 [2]: 0.3 µM; IC50 [3]: > 10 µM
6.86 µM,COc1cc2nc3c(C(=O)NCCN4CCCC4)cccn3c(=O)c2cc1OC,–
1.7 µM,O=C(NCCN1CCCC1)c1cccn2c1nc1cc3ccccc3cc12,–
> 10 µM,O=C(NCCN1CCCC(F)C1)c1cccn2c(=O)c3cc4ccccc4cc3nc12 (stereo not drawn),–
0.74 µM,N#CC1CCN(CCNC(=O)c2cccn3c(=O)c4cc5ccccc5cc4nc23)CC1,–
10 µM,O=C(NCCN1CCSCC1)c1cccn2c(=O)c3cc4ccccc4cc3nc12,–

IC50 [1],Structure (SMILES),other results
0.64 µM,O=C(NCCN1CCCCC1)c1cccn2c(=O)c3ccc4ccccc4c3nc12,IC50 [2]: > 10 µM; IC50 [3]: 3.72 µM
4.2 µM,O=C(NCCN1CCCC1)c1cccn2c(=O)c3c(ccc4cnncc43)nc12,–
> 10 µM,CN1CCN(CCNC(=O)c2cccn3c(=O)c4ccc5ccccc5c4nc23)CC1,IC50 [2]: > 10 µM; IC50 [3]: > 10 µM
0.78 µM,O=C(NCC1CCCN1)c1cccn2c(=O)c3cc4ccccc4cc3nc12 (stereo not drawn),–
0.59 µM,O=C(NCC1CCCCN1)c1cccn2c(=O)c3cc4ccccc4cc3nc12 (stereo not drawn),–
5.5 µM,O=C(NCCN1CCCC1)c1c(O)ccn2c(=O)c3cc4ccccc4cc3nc12,–
0.65 µM,O=C(NCC1CCCC(CO)N1)c1cccn2c(=O)c3cc4ccccc4cc3nc12 (stereo not drawn),–
> 10 µM,O=C(NCCN1CCS(=O)(=O)CC1)c1cccn2c(=O)c3cc4ccccc4cc3nc12,–
9.5 µM,O=C(NCCO)c1cccn2c(=O)c3ccc4ccccc4c3nc12,IC50 [2]: 0.1 µM; IC50 [3]: > 10 µM
0.6 µM,CCN(CC)CCNC(=O)c1cccn2c(=O)c3ccc4ccccc4c3nc12,–
> 10 µM,CN1CCC(NC(=O)c2cccn3c(=O)c4ccc5ccccc5c4nc23)CC1,IC50 [2]: > 10 µM; IC50 [3]: 7.39 µM
0.54 µM,O=C(NCCN1CCCC1)c1cccn2c(=O)c3cc4c(cc3nc12)OCO4,–
> 10 µM,O=C(NCCN1CCCC(F)(F)C1)c1cccn2c(=O)c3cc4ccccc4cc3nc12,–
3.94 µM,CN1CCCC1CNC(=O)c1cccn2c(=O)c3cc4ccccc4cc3nc12 (stereo not drawn),–
1.9 µM,O=C(NCCN1CC[C@@H](F)C1)c1cccn2c(=O)c3ccc4ccccc4c3nc12,IC50 [2]: 2.1 µM; IC50 [3]: 8.26 µM
> 10 µM,O=C(NCCN1CCCC1)c1cccn2c(=O)c3c(ccc4ccccc43)nc12,–
0.99 µM,CCN1CCCCC1CNC(=O)c1cccn2c(=O)c3cc4ccccc4cc3nc12 (stereo not drawn),–
> 10 µM,O=C(NCCN1CCC(F)(F)CC1)c1cccn2c(=O)c3cc4ccccc4cc3nc12,–
1 µM,CN1CCOCC1CNC(=O)c1cccn2c(=O)c3cc4ccccc4cc3nc12 (stereo not drawn),–
6 µM,O=C(NCCN1CCCC1)c1cccn2c1nc1cc3ccccc3nc12,–
> 10 µM,O=C(NCCN1CCC(F)(F)C1)c1cccn2c(=O)c3cc4ccccc4cc3nc12,–

Structure (SMILES),IC50 [1],other results
O=C(NCCN1CCCC1)c1cccn2c(=O)c3ccc4ccccc4c3nc12,0.21 µM,Vd [4]: 33.2 L/kg; clearance [5]: 508 mL/min/kg; half-life [6]: 1.22 h; AUC(0-inf) [7]: 122 ng·h/mL; AUC(0-inf) [8]: 30.8 ng·h/mL; Cmax [9]: 13.9 ng/mL; IC50 [10]: 0.038 µM; bioavailability [11]: 13%; microsomal CLint at 1 µM [12]: 132 µL/min/mg; inhibition [13]: Active; inhibition [14]: inactive; inhibition [15]: inactive; Cmax [16]: 83 ng/mL; half-life [17]: 7.52 h; AUC(0-inf) [18]: 518 ng·h/mL
